# Experimental data published in the supplement of paper PMC10307832.
# Key:
# Assay in all cases: relative viability (nuclei count vs DMSO), 5 days (fraction); higher = more cells survive
# [1] = compound: CC(C)N(CCCNC(=O)Nc1ccc(C(C)(C)C)cc1)C[C@H]1O[C@@H](n2ccc3c(N)ncnc32)[C@H](O)[C@@H]1O + Cc1nc(Nc2ncc(C(=O)Nc3c(C)cccc3Cl)s2)cc(N2CCN(CCO)CC2)n1 [Dasatinib] (partner 0.075 µM)
# How it was run: (§1)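 Medians of duplicate plates are given as relative viability. That measure is the nuclei count in treated wells divided by the count in vehicle wells. Counts were taken on 4× images of lung cancer cell lines in 1536-well plates, 5 days after pin-tool dosing the day after seeding with one drug alone or a fixed anchor-drug dose plus five library-drug doses (not always all listed) in √10 steps.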
# [2] = compound: CC(C)N(CCCNC(=O)Nc1ccc(C(C)(C)C)cc1)C[C@H]1O[C@@H](n2ccc3c(N)ncnc32)[C@H](O)[C@@H]1O + NC(=O)Nc1cc(-c2cccc(F)c2)sc1C(=O)N[C@H]1CCCNC1 [AZD7762] (partner 0.2 µM)
# How it was run: as §1
# [3] = compound: CC(C)N(CCCNC(=O)Nc1ccc(C(C)(C)C)cc1)C[C@H]1O[C@@H](n2ccc3c(N)ncnc32)[C@H](O)[C@@H]1O + CC1(C)CCC(c2ccc(Cl)cc2)=C(CN2CCN(c3ccc(C(=O)NS(=O)(=O)c4ccc(N[C@H](CCN5CCOCC5)CSc5ccccc5)c(S(=O)(=O)C(F)(F)F)c4)cc3)CC2)C1 [Navitoclax] (partner 0.5 µM)
# How it was run: as §1
# [4] = compound: CC(C)N(CCCNC(=O)Nc1ccc(C(C)(C)C)cc1)C[C@H]1O[C@@H](n2ccc3c(N)ncnc32)[C@H](O)[C@@H]1O + CCNC(=O)c1noc(-c2cc(C(C)C)c(O)cc2O)c1-c1ccc(CN2CCOCC2)cc1 [Luminespib] (partner 0.01 µM)
# How it was run: as §1
Cell Line,relative viability ([1]; first compound 0.08 µM),relative viability ([1]; first compound 0.253 µM),relative viability ([1]; first compound 0.8 µM),relative viability ([1]; first compound 2.53 µM),relative viability ([1]; first compound 8 µM),relative viability ([2]; first compound 0.08 µM),relative viability ([2]; first compound 0.253 µM),relative viability ([2]; first compound 0.8 µM),relative viability ([2]; first compound 2.53 µM),relative viability ([2]; first compound 8 µM),relative viability ([3]; first compound 0.08 µM),relative viability ([3]; first compound 0.253 µM),relative viability ([3]; first compound 0.8 µM),relative viability ([3]; first compound 2.53 µM),relative viability ([3]; first compound 8 µM),relative viability ([4]; first compound 0.08 µM),relative viability ([4]; first compound 0.253 µM),relative viability ([4]; first compound 2.53 µM),relative viability ([4]; first compound 8 µM),relative viability ([4]; first compound 0.8 µM)
HCC-366,0.608,0.647,0.442,0.587,0.536,0.208,0.237,0.277,0.104,0.249,1.08,1.05,0.928,0.898,0.942,,,,,
HCC-827,0.286,0.44,0.355,0.311,0.423,0.259,0.252,0.403,0.203,0.242,0.992,0.949,,0.962,0.977,0.625,0.573,0.599,0.688,
HOP-62,0.629,0.615,0.54,0.577,0.604,0.681,0.51,0.517,0.777,0.322,0.89,1.07,0.846,0.929,1.03,0.94,0.928,0.863,0.9,0.817
IA-LM,,,,,,,,,,,0.693,0.788,0.951,0.72,0.586,,,,,
LCLC-103H,0.435,0.424,0.449,0.428,0.443,0.745,0.805,0.686,0.701,0.727,,,,,,0.765,0.944,0.926,0.93,0.883
NCI-H358,0.172,0.158,0.171,0.174,0.165,0.454,0.538,0.569,0.565,0.491,,,,,,0.441,0.235,0.0174,0.307,0.384
NCI-H520,0.186,0.145,0.151,0.293,0.229,,,,,,1.04,1.15,1.1,1.05,0.929,0.22,0.219,0.221,0.232,0.239
NCI-H522,0.888,0.839,0.896,0.839,0.809,0.891,0.794,0.806,0.785,0.886,,,,,,0.949,1.2,1.1,1.22,1.05
NCI-H650,0.416,0.425,0.468,0.434,0.438,1.07,0.956,0.878,0.87,1.04,,,,,,0.665,0.803,0.757,0.774,0.666
NCI-H661,0.875,0.787,0.892,0.885,0.821,,,,,,,,,,,0.936,0.966,0.975,0.957,0.947
NCI-H1299,,,,,,,,,,,1.07,1.05,1.02,1.06,1.02,,,,,
NCI-H1563,0.447,0.42,0.488,0.434,0.424,,,,,,,,,,,0.474,0.542,0.533,0.515,0.592
NCI-H1623,0.562,0.563,0.571,0.537,0.521,,,,,,,,,,,0.495,0.472,0.589,0.547,0.394
NCI-H1648,,,,,,0.656,0.812,0.525,0.645,0.707,,,,,,,,,,
NCI-H1650,0.347,0.379,,0.275,0.349,,,,,,1.11,1.17,,1.14,1,0.207,0.218,0.208,0.226,
NCI-H1703,,,,,,0.145,,0.137,0.105,0.114,1.13,1.14,1.61,1.27,0.89,,,,,
NCI-H2009,0.261,0.281,0.273,0.288,0.295,,,,,,1.19,1.17,1.19,1.17,1.13,0.977,0.861,1.02,0.884,1.08
NCI-H2023,0.503,0.668,0.602,0.662,0.55,,,,,,0.989,1.05,1.01,1.05,0.988,0.694,0.771,0.858,0.621,0.807
NCI-H2228,0.54,0.457,0.502,0.416,0.613,,,,,,1.1,,0.916,1.32,0.711,0.218,0.191,0.144,0.18,0.178
NCI-H2342,0.336,0.29,0.289,0.321,0.277,0.454,0.535,0.455,0.505,0.397,,,,,,0.856,0.576,0.675,0.724,0.722
SK-LU-1,0.18,0.184,0.19,0.184,0.207,,,,,,0.688,0.762,0.86,1.06,0.557,0.193,0.202,0.252,0.191,0.182
SK-MES-1,0.348,0.355,0.356,0.475,0.316,,,,,,1.12,1.26,1.28,1.18,1.19,0.693,0.723,0.872,0.717,0.929
SW 900,0.74,0.542,,0.605,0.54,0.718,0.529,,0.564,0.554,,,,,,0.166,0.165,0.185,0.19,
SW 1573,0.475,0.463,0.579,0.704,0.474,,,,,,1.04,1.06,1.09,1.15,1.09,0.348,,0.172,0.194,0.356
